Data from PubChem BioAssay (NCI).
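Protocol summary: plate cells (96-well), add compound at 5 concentrations, incubate 48 h, interpolate endpoints linearly. The concentration for 50% growth inhibition is given as GI50. TGI denotes the concentration required for complete inhibition of growth.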

Tests used:
Assay in all cases: NCI tumour cell line growth inhibition, 48 h
SNB-75 CNS = system: SNB-75 CNS
SNB-19 CNS = system: SNB-19 CNS
SK-OV-3 ovarian = system: SK-OV-3 ovarian
OVCAR-5 ovarian = system: OVCAR-5 ovarian
SF-268 CNS = system: SF-268 CNS
HCT-116 colon = system: HCT-116 colon
RXF 393 renal = system: RXF 393 renal
UO-31 renal = system: UO-31 renal
MDA-MB-231 breast = system: MDA-MB-231 breast
HS 578T breast = system: HS 578T breast

Cc1ccc2oc(=O)cc(CC(=O)O)c2c1
TGI (SNB-75 CNS): > 100 µM
TGI (SNB-19 CNS): > 100 µM
TGI (SK-OV-3 ovarian): > 100 µM
TGI (OVCAR-5 ovarian): > 100 µM
TGI (SF-268 CNS): > 100 µM
TGI (HCT-116 colon): > 100 µM
TGI (RXF 393 renal): > 100 µM

Cc1cc(C)nc(NS(=O)(=O)c2ccc(Nc3nc4nc(NCc5ccccc5)nc(-c5ccc(O)cc5)c4c(=O)[nH]3)cc2)n1
GI50 (SNB-75 CNS): 64.6 µM
TGI (SNB-75 CNS): > 100 µM
GI50 (SNB-19 CNS): 27.4 µM
TGI (SNB-19 CNS): > 100 µM
GI50 (SK-OV-3 ovarian): > 100 µM
TGI (SK-OV-3 ovarian): > 100 µM
GI50 (OVCAR-5 ovarian): > 100 µM
TGI (OVCAR-5 ovarian): > 100 µM
GI50 (UO-31 renal): 6.39 µM
TGI (UO-31 renal): > 100 µM
GI50 (SF-268 CNS): 18 µM
TGI (SF-268 CNS): > 100 µM
GI50 (MDA-MB-231 breast): 29.6 µM
TGI (MDA-MB-231 breast): > 100 µM
GI50 (HS 578T breast): 14.6 µM
TGI (HS 578T breast): 88.6 µM
GI50 (HCT-116 colon): 23.6 µM
TGI (HCT-116 colon): > 100 µM

CCCCN1C(=O)C2c3[nH]c4ccccc4c3C3CCCCC3C2C1=O (mixture of isomers)
TGI (SNB-75 CNS): 21.9 µM
TGI (SNB-19 CNS): 64.2 µM
TGI (SK-OV-3 ovarian): 47.7 µM
TGI (UO-31 renal): 47.5 µM
TGI (SF-268 CNS): 48.4 µM
TGI (HCT-116 colon): 23.6 µM

O=c1/c(=C/c2ccccc2O)sc2nc3ccccc3n12
TGI (SNB-75 CNS): > 100 µM
TGI (SNB-19 CNS): > 100 µM
TGI (OVCAR-5 ovarian): > 100 µM
TGI (UO-31 renal): > 100 µM
TGI (SF-268 CNS): 56.7 µM
TGI (HCT-116 colon): > 100 µM
TGI (RXF 393 renal): 57.9 µM

COc1cccc(-c2cc(C(=O)Nc3ccc(Cl)cc3)nc(N)n2)c1
TGI (SNB-75 CNS): 68.1 µM
TGI (SNB-19 CNS): > 100 µM
TGI (SK-OV-3 ovarian): > 100 µM
TGI (OVCAR-5 ovarian): > 100 µM
TGI (UO-31 renal): > 100 µM
TGI (SF-268 CNS): > 100 µM
TGI (HCT-116 colon): > 100 µM
TGI (RXF 393 renal): > 100 µM

C=C(c1ccc(OC)c(/C=C/C(=O)c2cc(OC)c(OC)c(OC)c2)c1)c1cc(OC)c(OC)c(OC)c1
GI50 (SNB-75 CNS): 0.892 µM
TGI (SNB-75 CNS): 7.08 µM
GI50 (SK-OV-3 ovarian): 3.6 µM
TGI (SK-OV-3 ovarian): > 100 µM
GI50 (OVCAR-5 ovarian): 2.07 µM
TGI (OVCAR-5 ovarian): 6.14 µM
GI50 (UO-31 renal): 1.07 µM
TGI (UO-31 renal): 2.34 µM
GI50 (SF-268 CNS): 1.46 µM
TGI (SF-268 CNS): 3.83 µM
GI50 (MDA-MB-231 breast): 0.995 µM
TGI (MDA-MB-231 breast): > 100 µM
GI50 (HS 578T breast): 1.46 µM
TGI (HS 578T breast): 50 µM
GI50 (HCT-116 colon): 0.609 µM
TGI (HCT-116 colon): 1.9 µM
GI50 (RXF 393 renal): 1.11 µM
TGI (RXF 393 renal): 2.62 µM

OCC(O)C(O)C(O)c1nn[nH]n1 (stereo not drawn)
TGI (SNB-75 CNS): > 100 µM
TGI (SK-OV-3 ovarian): > 100 µM
TGI (OVCAR-5 ovarian): > 100 µM
TGI (UO-31 renal): > 100 µM
TGI (SF-268 CNS): > 100 µM
TGI (HCT-116 colon): > 100 µM

CN1C(=O)C(C)(C)NS1(=O)=O
TGI (SNB-75 CNS): > 100 µM
TGI (SNB-19 CNS): > 100 µM
TGI (SK-OV-3 ovarian): > 100 µM
TGI (OVCAR-5 ovarian): > 100 µM
TGI (UO-31 renal): > 100 µM
TGI (SF-268 CNS): > 100 µM
TGI (HCT-116 colon): > 100 µM
TGI (RXF 393 renal): > 100 µM

CCOc1cccc2sc(N)nc12
TGI (SNB-75 CNS): > 100 µM
TGI (SNB-19 CNS): > 100 µM
TGI (SK-OV-3 ovarian): > 100 µM
TGI (OVCAR-5 ovarian): > 100 µM
TGI (UO-31 renal): > 100 µM
TGI (SF-268 CNS): > 100 µM
TGI (HCT-116 colon): > 100 µM
TGI (RXF 393 renal): > 100 µM

CCOC(=O)NC(=O)c1cn(CC(=O)NCC(=O)NCC(=O)N2CCN(CCn3c(C)nc(C(N)=O)c3N)CC2)c(=O)[nH]c1=O
TGI (SNB-75 CNS): > 100 µM
TGI (SNB-19 CNS): > 100 µM
TGI (SK-OV-3 ovarian): > 100 µM
TGI (UO-31 renal): > 100 µM
TGI (SF-268 CNS): > 100 µM
TGI (HCT-116 colon): > 100 µM

CC1(OCc2ccccc2)C(=O)N2C1N(C(=O)OCc1ccccc1)CC2(C)C (stereo not drawn)
TGI (SNB-75 CNS): > 100 µM
TGI (SNB-19 CNS): > 100 µM
TGI (UO-31 renal): > 100 µM
TGI (SF-268 CNS): > 100 µM
TGI (HCT-116 colon): > 100 µM
TGI (RXF 393 renal): > 100 µM

CN(C(=N)c1ccccc1)c1ccccc1
TGI (SNB-75 CNS): > 100 µM
TGI (SNB-19 CNS): > 100 µM
TGI (SK-OV-3 ovarian): > 100 µM
TGI (UO-31 renal): > 100 µM
TGI (HCT-116 colon): > 100 µM

O=C1C2c3[nH]c4ccccc4c3C3CCC(c4ccccc4)CC3C2C(=O)N1c1ccccc1 (stereo not drawn)
TGI (SNB-75 CNS): 55.9 µM
TGI (SNB-19 CNS): > 100 µM
TGI (SK-OV-3 ovarian): > 100 µM
TGI (OVCAR-5 ovarian): > 100 µM
TGI (UO-31 renal): > 100 µM
TGI (SF-268 CNS): > 100 µM
TGI (RXF 393 renal): > 100 µM

Clc1cc(Cl)cc(C2SCc3nc4ccccc4n32)c1 (stereo not drawn)
TGI (SNB-75 CNS): > 100 µM
TGI (SNB-19 CNS): 66.9 µM
TGI (SK-OV-3 ovarian): 63.8 µM
TGI (OVCAR-5 ovarian): 71.4 µM
TGI (UO-31 renal): 43.5 µM
TGI (SF-268 CNS): 59.3 µM
TGI (RXF 393 renal): 28.2 µM

N#CC1=C(c2ccccc2)NN(Cc2ccccc2)C(c2ccc(Cl)cc2)CC1=O (stereo not drawn)
TGI (SNB-75 CNS): 46 µM
TGI (SNB-19 CNS): 72.8 µM
TGI (OVCAR-5 ovarian): > 100 µM
TGI (SF-268 CNS): > 100 µM
TGI (HCT-116 colon): 48.5 µM
TGI (RXF 393 renal): 98.2 µM

NC(N)=NS(=O)(=O)c1ccc(NC(=O)c2cccn3c(=O)c4ccccc4nc23)cc1
TGI (SNB-75 CNS): > 100 µM
TGI (SNB-19 CNS): > 100 µM
TGI (SK-OV-3 ovarian): > 100 µM
TGI (UO-31 renal): > 100 µM
TGI (SF-268 CNS): > 100 µM
TGI (HCT-116 colon): > 100 µM
TGI (RXF 393 renal): > 100 µM

O=C1C[C@@H]2[C@@H](C=CC23CC3)N1O
TGI (SNB-75 CNS): > 100 µM
TGI (SNB-19 CNS): > 100 µM
TGI (SK-OV-3 ovarian): > 100 µM
TGI (OVCAR-5 ovarian): > 100 µM
TGI (UO-31 renal): > 100 µM
TGI (SF-268 CNS): > 100 µM
TGI (HCT-116 colon): > 100 µM
TGI (RXF 393 renal): > 100 µM

COc1cccc(-c2cc(=O)c3cc(C)c(C)c(C(=O)O)c3o2)c1
TGI (SNB-75 CNS): 92.7 µM
TGI (SNB-19 CNS): > 100 µM
TGI (SK-OV-3 ovarian): > 100 µM
TGI (OVCAR-5 ovarian): > 100 µM
TGI (UO-31 renal): > 100 µM
TGI (SF-268 CNS): > 100 µM
TGI (HCT-116 colon): > 100 µM

CC(C)(C)c1cc(O)c2c(c1O)C(=O)CCC2
TGI (SNB-75 CNS): > 100 µM
TGI (SNB-19 CNS): > 100 µM
TGI (SK-OV-3 ovarian): > 100 µM
TGI (HCT-116 colon): > 100 µM
TGI (RXF 393 renal): 90.4 µM

Cc1cc(NCCCNc2ccnc3cc(Cl)ccc23)nc(Nc2ccc(C(=O)N3CCCCC3)cc2)n1
GI50 (SNB-75 CNS): 1.69 µM
TGI (SNB-75 CNS): 3.69 µM
GI50 (SNB-19 CNS): 3.55 µM
TGI (SNB-19 CNS): 12.5 µM
GI50 (SK-OV-3 ovarian): 3.14 µM
TGI (SK-OV-3 ovarian): 8.23 µM
GI50 (OVCAR-5 ovarian): 4.5 µM
TGI (OVCAR-5 ovarian): 18.5 µM
GI50 (UO-31 renal): 2.16 µM
TGI (UO-31 renal): 5.87 µM
GI50 (SF-268 CNS): 1.91 µM
TGI (SF-268 CNS): 5.11 µM
GI50 (HS 578T breast): 2.68 µM
TGI (HS 578T breast): 6.38 µM
GI50 (HCT-116 colon): 2.22 µM
TGI (HCT-116 colon): 5.83 µM
GI50 (RXF 393 renal): 1.8 µM
TGI (RXF 393 renal): 3.67 µM

COC(=O)CCC(=O)Nc1cccc(C(F)(F)F)c1
TGI (SNB-75 CNS): > 100 µM
TGI (SNB-19 CNS): > 100 µM
TGI (SK-OV-3 ovarian): > 100 µM
TGI (OVCAR-5 ovarian): > 100 µM
TGI (UO-31 renal): > 100 µM
TGI (SF-268 CNS): > 100 µM
TGI (HCT-116 colon): > 100 µM
TGI (RXF 393 renal): > 100 µM

COc1ccc(C(=C(C#N)C#N)c2ccc(OC)cc2)cc1
TGI (SNB-19 CNS): > 100 µM
TGI (OVCAR-5 ovarian): > 100 µM
TGI (UO-31 renal): > 100 µM
TGI (SF-268 CNS): > 100 µM
TGI (HCT-116 colon): > 100 µM
TGI (RXF 393 renal): > 100 µM

C=C(c1ccccc1)[C@@]1(O)CCCC[C@H]1NC(c1ccccc1)c1ccccc1
TGI (SNB-75 CNS): 63.6 µM
TGI (SNB-19 CNS): 36.7 µM
TGI (SK-OV-3 ovarian): 44.2 µM
TGI (OVCAR-5 ovarian): 27 µM
TGI (UO-31 renal): 27.6 µM
TGI (SF-268 CNS): 27.6 µM
TGI (HCT-116 colon): 20.5 µM
TGI (RXF 393 renal): 22.7 µM

CCCCCCCCCCCCCCCCCc1cc(Cl)nc(Cl)n1
TGI (SNB-75 CNS): > 100 µM
TGI (SNB-19 CNS): > 100 µM
TGI (SK-OV-3 ovarian): > 100 µM
TGI (OVCAR-5 ovarian): > 100 µM
TGI (UO-31 renal): > 100 µM
TGI (SF-268 CNS): > 100 µM
TGI (HS 578T breast): > 100 µM
TGI (RXF 393 renal): > 100 µM
